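The compound was tested at five concentrations on cells cultured in 96-well plates, with a 48-hour exposure period. At the GI50, growth is halved. TGI is the concentration that stops growth completely.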

Test systems include MCF7 breast; SN12C renal; NCI-H522 lung; OVCAR-8 ovarian; HCT-116 colon; COLO 205 colon; EKVX NSCLC; OVCAR-3 ovarian; M14 melanoma; SR leukemia.
Assay in all cases: NCI anticancer screen, dose series, 48 h

`FC(F)(F)c1cccc2c(SCCc3n[nH]c(=S)o3)ccnc12`: the GI50 with MCF7 breast is 41.6 µM; in the assay with SN12C renal, 51.4 µM; in the assay with NCI-H522 lung, 22.6 µM; in the assay on OVCAR-8 ovarian it was 36.5 µM; in the assay with HCT-116 colon, 44.4 µM; with COLO 205 colon, 64.8 µM. Also, the GI50 with EKVX NSCLC is 27.6 µM; in the assay on OVCAR-3 ovarian, 42.9 µM. Besides, the TGI in the assay with MCF7 breast is above 100 µM; with SN12C renal it was above 100 µM; with NCI-H522 lung, 90 µM; in the assay with OVCAR-8 ovarian, above 100 µM; in the assay with HCT-116 colon it was above 100 µM; in the assay on COLO 205 colon it was above 100 µM. Moreover, the TGI with EKVX NSCLC and with OVCAR-3 ovarian was above 100 µM in each case.
As for `N#C/C(=C\c1c(-c2ccccc2)[nH]c2ccccc12)C(=O)c1ccccc1`, the GI50 in the assay on MCF7 breast is 3.95 µM; with M14 melanoma, 4.78 µM; in the assay with SN12C renal, 5.66 µM; in the assay on NCI-H522 lung, 3.98 µM; in the assay with OVCAR-8 ovarian it was 21.7 µM; in the assay on HCT-116 colon, 5.29 µM. Besides, the GI50 in the assay on COLO 205 colon was 5.02 µM; with EKVX NSCLC, 9.97 µM; in the assay with OVCAR-3 ovarian it was 2.43 µM. Also, the TGI was above 100 µM in the assay on MCF7 breast; above 100 µM in the assay on M14 melanoma; above 100 µM in the assay on SN12C renal; 32.9 µM in the assay with NCI-H522 lung; above 100 µM in the assay with OVCAR-8 ovarian; above 100 µM in the assay with HCT-116 colon. The TGI is above 100 µM with COLO 205 colon, above 100 µM in the assay on EKVX NSCLC and 5.75 µM in the assay on OVCAR-3 ovarian.
Regarding `CC(=O)OC1CCC2C(=CCC3C2(C)C(=O)CC2(C)C(C4(C)OC(C(C)C)=CC4=O)C(O)CC32C)C1(C)C` (configuration not stated), the TGI with M14 melanoma is 50.9 µM; in the assay with SN12C renal, above 100 µM; in the assay with NCI-H522 lung, above 100 µM; in the assay on OVCAR-8 ovarian it was above 100 µM; with SR leukemia, 72.5 µM; in the assay on HCT-116 colon it was above 10 µM. The TGI in the assay with COLO 205 colon is above 100 µM; with EKVX NSCLC, above 100 µM; in the assay on OVCAR-3 ovarian it was above 10 µM.
For the compound `COc1cc(F)c(/C=C/c2cc(/C=C/c3cc(OC)c(OC)cc3F)n(-c3cc(F)cc(F)c3)n2)cc1OC`, the GI50 in the assay on MCF7 breast was 2.99 µM; in the assay on M14 melanoma, 1.74 µM; in the assay with SN12C renal, 2.04 µM; in the assay on NCI-H522 lung it was 1.91 µM; in the assay with HCT-116 colon it was 3.13 µM; with COLO 205 colon, 3.95 µM. Besides, the figures for the GI50 in the assay on EKVX NSCLC and with OVCAR-3 ovarian were 4.94 µM and 2.47 µM, respectively. Also, the TGI in the assay with MCF7 breast amounted to 17.3 µM; in the assay with M14 melanoma it was 3.53 µM; in the assay with SN12C renal, 4.42 µM; in the assay on NCI-H522 lung, 5.47 µM; in the assay with HCT-116 colon, 13.1 µM; with COLO 205 colon, 26.8 µM. The TGI was 55.9 µM in the assay on EKVX NSCLC and 6.37 µM in the assay on OVCAR-3 ovarian.
Regarding `CC(=O)OC(C)c1cc2c(s1)C(=O)c1c(C(C)OC(C)=O)csc1C2=O` (configuration not stated), the TGI was 3.09 µM with MCF7 breast; 1.79 µM with M14 melanoma; 2.04 µM in the assay with SN12C renal; 2.05 µM with OVCAR-8 ovarian; above 100 µM in the assay with SR leukemia; 10.2 µM in the assay on HCT-116 colon. Also, the TGI in the assay on COLO 205 colon was 3.5 µM; with EKVX NSCLC it was 3.22 µM; in the assay on OVCAR-3 ovarian, 0.724 µM. Further, the GI50 was 0.516 µM with M14 melanoma, 0.452 µM in the assay on OVCAR-8 ovarian and 0.278 µM in the assay on OVCAR-3 ovarian.
As to `CC(C)CC12CC3CCC(CNC1=O)C32C` (configuration not stated), the TGI in the assay on M14 melanoma, in the assay on SN12C renal, in the assay with NCI-H522 lung, with OVCAR-8 ovarian, with SR leukemia and with HCT-116 colon was above 100 µM each time. Moreover, the TGI in the assay on COLO 205 colon, in the assay on EKVX NSCLC and in the assay with OVCAR-3 ovarian was above 100 µM throughout.
On to `Clc1cc(-c2ccccc2)nc2ccccc12`, for which the TGI in the assay on MCF7 breast is above 100 µM; with M14 melanoma it was above 100 µM; in the assay with SN12C renal, above 100 µM; with NCI-H522 lung, 34 µM; with OVCAR-8 ovarian, above 100 µM; in the assay with HCT-116 colon, above 100 µM. For the same compound, the TGI with COLO 205 colon is 37.5 µM; in the assay on EKVX NSCLC, above 100 µM; in the assay with OVCAR-3 ovarian, above 100 µM.
Regarding `C=C(CNC(=O)c1ccccc1)c1ccc(C(=O)Nc2ccccc2N)cc1`, the GI50 with MCF7 breast was 3.2 µM; with SN12C renal, 1.09 µM; with NCI-H522 lung, 2.6 µM; in the assay on OVCAR-8 ovarian it was 5.61 µM; in the assay with HCT-116 colon it was 1.6 µM; in the assay with COLO 205 colon, 5.88 µM. For the same compound, the values for the GI50 in the assay with EKVX NSCLC and in the assay with OVCAR-3 ovarian were above 100 µM and 11.2 µM, respectively. Also, the TGI in the assay with MCF7 breast was above 100 µM; in the assay on SN12C renal, 8.93 µM; with NCI-H522 lung, 10.1 µM; in the assay with OVCAR-8 ovarian, above 100 µM; with HCT-116 colon, 15.2 µM; in the assay on COLO 205 colon it was above 100 µM. Besides, the TGI in the assay on EKVX NSCLC and in the assay on OVCAR-3 ovarian was above 100 µM in each case.
As to `CCOC(=O)C1=C(Nc2ccc(Br)cc2)OC/C1=N\NC(=O)c1ccccc1O`, the TGI in the assay with M14 melanoma was above 100 µM; in the assay on SN12C renal it was above 100 µM; with NCI-H522 lung, 34.2 µM; in the assay with OVCAR-8 ovarian, above 100 µM; in the assay on SR leukemia it was 18.4 µM; in the assay on HCT-116 colon, above 62 µM. For the same compound, the TGI with COLO 205 colon is above 100 µM; in the assay on EKVX NSCLC, above 93.9 µM; in the assay with OVCAR-3 ovarian it was 77.7 µM.
As for `CCOc1nccc2c1nc(-c1nonc1N)n2CC`, the GI50 with MCF7 breast is above 25 µM; in the assay with M14 melanoma, above 25 µM; in the assay on SN12C renal it was above 25 µM; in the assay with NCI-H522 lung, 24.7 µM; with OVCAR-8 ovarian, above 25 µM; in the assay on HCT-116 colon, above 25 µM. The GI50 with COLO 205 colon, in the assay on EKVX NSCLC and in the assay on OVCAR-3 ovarian was above 25 µM each time. The TGI in the assay on MCF7 breast, with M14 melanoma, in the assay with SN12C renal, in the assay with NCI-H522 lung, with OVCAR-8 ovarian and in the assay on HCT-116 colon was above 25 µM each time. For the same compound, the TGI in the assay with COLO 205 colon, in the assay on EKVX NSCLC and in the assay with OVCAR-3 ovarian was above 25 µM in each case.
